Results on 65 molecules are retold here after patent publication US20260226034A1 (The Rockefeller University, priority 2023, published 2026).

As usually defined, the IC50 is the concentration that inhibits the measured activity by half.

For the first test, the target named is NSP14 (Severe acute respiratory syndrome coronavirus 2, UniProt P0DTD1). The test is described as follows: NSP14 MTase inhibition assay at 37° C. (MTase-Glo SAH detection). The test is classed as biochemical, SARS-CoV-2. Particulars: 0.3 nM NSP14, 2.5 μM SAM, 2.5 μM GpppA RNA, 45 min at 37° C.; read-out: Nsp14 Mtase Inh. IC50.
Regarding `Cc1c(S(=O)(=O)c2ccc3[nH]ncc3c2)cc(C(=O)NCc2cccn3nccc23)n1C` [A.13], the concentration for half-maximal inhibition (IC50) came to 7200 pM.

On to `Cc1c(S(=O)(=O)c2ccncc2)cc(C(=O)NCc2cccc3cnn(C)c23)n1C` [A.27], for which the half-maximal inhibitory concentration (IC50) was 102000 pM.

As to `Cc1c(S(=O)(=O)c2ccc3[nH]ncc3c2)cc(C(=O)N[C@@H]2CCN(c3ccccc3C(F)(F)F)C2)n1C` [A.103], the IC50 was found to be 5100 pM.

Turning to `Cc1c(S(=O)(=O)c2ccc3[nH]ncc3c2)cc(C(=O)N[C@@H]2CCN(c3cccc4ccnn34)C2)n1C` [A.55], the IC50 was 900 pM.

As to `Cc1c(S(=O)(=O)c2ccc3[nH]ncc3c2)cc(C(=O)N[C@@H]2CCN(c3cnccn3)C2)n1C` [A.71], the 50% inhibitory concentration (IC50) was found to be 550 pM.

On to `Cc1c(S(=O)(=O)c2ccc3occc3c2)cc(C(=O)NCc2c(F)ccc3occc23)n1C` [A.14], for which the IC50 is 7700 pM.

For `Cc1c(S(=O)(=O)c2ccc3[nH]ncc3c2)cc(C(=O)N[C@@H]2CCN(c3ccc(C(F)(F)F)nn3)C2)n1C` [A.76], the IC50 was found to be 440 pM.

Consider `Cc1c(S(=O)(=O)c2cc(F)c3[nH]nc(F)c3c2)cc(C(=O)N[C@@H]2CCN(c3ncc(F)cn3)C2)n1C` [A.67], for which the half-inhibitory concentration (IC50) is 380 pM.

With `Cc1c(S(=O)(=O)c2ccc3[nH]ncc3c2)cc(C(=O)NC2(CO)CCN(c3ncc(F)cn3)C2)n1C` (single isomer, unassigned) [A.116, 4-((1H-indazol-5-yl)sulfonyl)-N-(1-(5-fluoropyrimidin-2-yl)-3-(hydroxymethyl)pyrrolidin-3-yl)-1,5-dimethyl-1H-pyrrole-2-carboxamide], the half-maximal inhibitory concentration (IC50) came to 44000 pM.

Regarding `Cc1c(S(=O)(=O)c2ccc3[nH]ncc3c2)cc(C(=O)N[C@@H]2CCN(c3nccc(C(F)F)n3)C2)n1C` [A.122], the IC50 stood at 300 pM.

Consider `Cc1c(S(=O)(=O)c2ccc3[nH]ncc3c2)cc(C(=O)NCc2cccc3cnn(C4CC4)c23)n1C` [A.5], for which the IC50 turned out to be 1500 pM.

As to `Cc1c(S(=O)(=O)c2ccc3[nH]ncc3c2)cc(C(=O)N[C@@H]2CCN(c3ncc(C(F)(F)F)cn3)C2)n1C` [A.52], the half-maximal inhibitory concentration (IC50) was 300 pM.

Regarding `Cc1c(S(=O)(=O)c2ccc3[nH]ncc3c2)cc(C(=O)N[C@@H]2CCN(c3ccc(C#N)cc3)C2)n1C` [A.57], the half-inhibitory concentration (IC50) is 570 pM.

Consider `Cc1c(S(=O)(=O)c2ccc3[nH]ncc3c2)cc(C(=O)N[C@@H]2CCN(c3cc(C(F)(F)F)ncn3)C2)n1C` [A.94], for which the IC50 is 150 pM.

With `Cc1c(S(=O)(=O)c2ccc(C(N)=O)cc2)cc(C(=O)NCc2cccc3cnn(C)c23)n1C` [A.21], the IC50 is 53000 pM.

On to `Cc1c(S(=O)(=O)c2ccc3[nH]ncc3c2)cc(C(=O)N[C@@H]2CCN(c3ncc(F)cn3)C2)n1CCO` [A.90], for which the IC50 was less than 150 pM.

Take `Cc1c(S(=O)(=O)c2ccc3[nH]ncc3c2)cc(C(=O)N[C@@H]2CCN(c3cnccc3C#N)C2)n1C` [A.95]: the IC50 was less than 150 pM.

As to `Cc1c(S(=O)(=O)c2ccc3[nH]ncc3c2)cc(C(=O)N[C@@H]2CCN(c3ccc(F)cc3)C2)n1C` [A.81], the IC50 came to 580 pM.

On to `Cc1c(S(=O)(=O)c2ccc3[nH]ncc3c2)cc(C(=O)N[C@@H]2CCN(c3ncccc3C(F)(F)F)C2)n1C` [A.80], for which the IC50 is 1500 pM.

In the case of `Cc1c(S(=O)(=O)c2ccc3[nH]ncc3c2)cc(C(=O)N[C@H]2CN(c3ncc(F)cn3)CC23CC3)n1C` [A.62], the concentration for half-maximal inhibition (IC50) was determined as 410 pM.

Regarding `Cc1c(S(=O)(=O)c2ccc3[nH]ncc3c2)cc(C(=O)N[C@@H]2CCN(c3ccc(F)cc3C#N)C2)n1C` [A.82], the IC50 turned out to be 450 pM.

With `Cc1nc(N2CC[C@@H](NC(=O)c3cc(S(=O)(=O)c4ccc5[nH]ncc5c4)c(C)n3C)C2)nc(C)c1F` [A.75], the half-inhibitory concentration (IC50) is 510 pM.

`Cc1c(S(=O)(=O)c2ccc3[nH]ncc3c2)cc(C(=O)N[C@@H]2CCN(c3nccnc3C#N)C2)n1C` [A.120]: the IC50 stood at 260 pM.

Take `CN=S(=O)(c1ccc2[nH]ncc2c1)c1cc(C(=O)N[C@@H]2CCN(c3ncc(F)cn3)C2)n(C)c1C` (some centres unmarked) [A.70]: the IC50 is 3900 pM.

Staying with this test, now noted: 37° C., 0.3 nM NSP14, 2.5 μM SAM, 2.5 μM GpppA RNA; read-out: Nsp14 Mtase Inh. IC50.
As for `Cc1c(S(=O)(=O)c2ccc3[nH]ncc3c2)cc(C(=O)NCc2cnn3ccccc23)n1C` [B.163], the half-maximal inhibitory concentration (IC50) is 3000 pM.

`Cc1c(S(=O)(=O)c2ccc3[nH]ncc3c2)cc(C(=O)NCc2c(Cl)ccc(=O)n2C)n1C` [B.174]: the concentration for half-maximal inhibition (IC50) stood at 700 pM.

As to `Cc1c(S(=O)(=O)c2ccc3[nH]nc(F)c3c2)cc(C(=O)NCc2c(F)ccc3c2N(C)C(=O)C3(F)F)n1C` [B.105], the IC50 worked out at 150 pM.

For `Cc1c(S(=O)(=O)c2cc3cn[nH]c3cn2)cc(C(=O)NCc2cccc3cnn(C4CC4)c23)n1C` [B.42], the IC50 worked out at 9300 pM.

As to `Cc1c(S(=O)(=O)c2ccc3c(=O)[nH]cnc3c2)cc(C(=O)NCc2cccc3cnn(C)c23)n1C` [B.8], the half-inhibitory concentration (IC50) was 71000 pM.

Consider `Cc1c(S(=O)(=O)c2ccc3[nH]ncc3c2)cc(C(=O)NCc2cccc3ncn(C4CC4)c23)n1C` [B.1], for which the concentration for half-maximal inhibition (IC50) stood at 380 pM.

Consider `Cc1cc(S(=O)(=O)c2cc(C(=O)NCc3c(F)ccc4cnn(C5CC5)c34)n(C)c2C)cc2cn[nH]c12` [B.28], for which the concentration for half-maximal inhibition (IC50) amounted to 240 pM.

In the case of `Cc1c(S(=O)(=O)c2ccc3[nH]nc(F)c3c2)cc(C(=O)NCc2ccccc2N2CCC(F)(F)C2)n1C` [B.39], the IC50 turned out to be 5200 pM.

Consider `Cc1c(S(=O)(=O)c2ccc3[nH]ncc3c2)cc(C(=O)NC(C)c2ccnn2C)n1C` (racemic) [B.172], for which the IC50 was found to be 24000 pM.

As to `Cc1c(S(=O)(=O)c2ccc3[nH]ncc3c2Cl)cc(C(=O)NCc2c(F)ccc3c2N(C)C(=O)C32CC2)n1C` [B.143], the IC50 was 400 pM.

For the molecule `Cc1c(S(=O)(=O)c2ccc3[nH]ncc3c2)cc(C(=O)NC2CCc3c(F)ccc(F)c32)n1C` (racemic) [B.70], the half-maximal inhibitory concentration (IC50) was 950 pM.

As to `Cc1c(S(=O)(=O)c2ccc3[nH]ncc3c2)cc(C(=O)NCc2ccc(N(C)C)nn2)n1C` [B.73], the IC50 is 116000 pM.

As to `Cc1c(S(=O)(=O)c2cccc(C#N)c2)cc(C(=O)NCc2c(Cl)cnn2C)n1C` [B.183], the half-maximal inhibitory concentration (IC50) is 17000 pM.

Take `Cc1c(S(=O)(=O)c2ccc3[nH]ncc3c2)cc(C(=O)NC2CCc3ncccc32)n1C` (centres unmarked) [B.55]: the concentration for half-maximal inhibition (IC50) was found to be 5600 pM.

Turning to `Cc1c(S(=O)(=O)c2ccc3[nH]ncc3c2)cc(C(=O)NCc2cccc3c(F)nn(C)c23)n1C` [B.44], the 50% inhibitory concentration (IC50) was 240 pM.

As to `Cc1c(S(=O)(=O)c2ccc3[nH]ncc3c2)cc(C(=O)NCc2cccc3c2N(C)C(=O)C3(F)F)n1C` [B.26], the IC50 worked out at 490 pM.

Regarding `Cc1c(S(=O)(=O)c2ccc3[nH]ncc3c2)cc(C(=O)NCc2ccnn2C2CC2)n1C` [B.167], the IC50 is 7800 pM.

`Cc1c(S(=O)(=O)c2cc(Cl)c3[nH]ncc3c2)cc(C(=O)NCc2ccnn2C)n1C` [B.134]: the half-inhibitory concentration (IC50) worked out at 180 pM.

As to `Cc1c(S(=O)(=O)c2ccc3[nH]ncc3c2)cc(C(=O)NCc2nccc3cnn(C)c23)n1C` [B.24], the IC50 is 620 pM.

With `Cc1c(S(=O)(=O)c2ccc3c(cnn3C)c2)cc(C(=O)NCc2c(F)ccc3cnn(C4CC4)c23)n1CCCC#N` [B.61], the IC50 is 2600 pM.

As for `Cc1c(S(=O)(=O)c2cc(F)c3ncccc3c2)cc(C(=O)NCc2cccc3cnn(C)c23)n1C` [B.17], the 50% inhibitory concentration (IC50) is 41800 pM.

In the case of `Cc1c(S(=O)(=O)c2ccc3c(cnn3C)c2)cc(C(=O)NCc2c(F)ccnc2N2CCC(C(=O)O)C2)n1C` (centres unmarked) [B.48], the IC50 was determined as 150 pM.

`Cc1c(S(=O)(=O)c2cc(F)c3[nH]ncc3c2)cc(C(=O)NCc2c(F)ccc3cnn(C4CC4)c23)n1C` [B.63]: the IC50 is less than 150 pM.

Regarding `Cc1c(S(=O)(=O)c2cccc(C#N)c2)cc(C(=O)NCc2cccc3ncn(C)c23)n1C` [B.4], the half-maximal inhibitory concentration (IC50) turned out to be 4900 pM.

Take `Cc1c(S(=O)(=O)c2cc(F)c3[nH]ncc3c2)cc(C(=O)NCc2ncccc2F)n1C` [B.58]: the IC50 was 2300 pM.

Take `Cc1c(S(=O)(=O)c2ccc3[nH]ncc3c2)cc(C(=O)NCc2c(F)cccc2F)n1C` [B.22]: the IC50 worked out at 230 pM.

For `Cc1c(S(=O)(=O)c2ccc3[nH]nc(F)c3c2)cc(C(=O)NC(c2ccccc2)C(F)(F)F)n1C` (centres unmarked) [B.122], the IC50 was determined as 70000 pM.

Regarding `Cc1c(S(=O)(=O)c2ccc3[nH]ncc3c2)cc(C(=O)NCc2c(Cl)ccn(C)c2=O)n1C` [B.180], the half-inhibitory concentration (IC50) is less than 150 pM.

Turning to `CCn1nccc1CNC(=O)c1cc(S(=O)(=O)c2ccc3[nH]ncc3c2)c(C)n1C` [B.166], the half-maximal inhibitory concentration (IC50) worked out at 950 pM.

As to `Cc1c(S(=O)(=O)c2ccc3[nH]ncc3c2)cc(C(=O)NCc2c(F)cccc2Cl)n1C` [B.85], the half-inhibitory concentration (IC50) was found to be 200 pM.

In the case of `Cc1c(S(=O)(=O)c2ccc3[nH]ncc3c2)cc(C(=O)NCc2ccc(F)c3cnn(C)c23)n1C` [B.36], the 50% inhibitory concentration (IC50) was 410 pM.

As for `Cc1c(S(=O)(=O)c2ccc3[nH]ncc3c2)cc(C(=O)NCc2c(F)ccc3c2N(C)C(=O)C32CC2)n1C` [B.145], the IC50 was less than 150 pM.

Turning to `Cc1c(S(=O)(=O)c2ccc3[nH]ncc3c2)cc(C(=O)NCC2(COc3ncc(F)cn3)CC2)n1C` [B.197], the IC50 turned out to be 2700 pM.

Take `Cc1c(S(=O)(=O)c2ccc3[nH]ncc3c2)cc(C(=O)NCc2c(Cl)cnn2C)n1CC(F)F` [B.186]: the IC50 is 1100 pM.

Consider `Cc1c(S(=O)(=O)c2cc(CO)c3[nH]ncc3c2)cc(C(=O)NCc2cccc3cnn(C4CC4)c23)n1C` [B.45], for which the concentration for half-maximal inhibition (IC50) was 4000 pM.

Turning to `Cc1c(S(=O)(=O)c2ccc3[nH]ncc3c2)cc(C(=O)NCc2n[nH]c(=O)c3ccccc23)n1C` [B.121], the IC50 is less than 150 pM.

On to `Cc1c(S(=O)(=O)c2cnc3[nH]ncc3c2)cc(C(=O)NCc2cccc3cnn(C4CC4)c23)n1C` [B.37], for which the IC50 came to 10000 pM.

For the molecule `O=C(O)CCn1ncc2ccc(F)c(CNC(=O)c3cc(S(=O)(=O)c4cc(Cl)c5[nH]ncc5c4)c4n3CCC4)c21` [B.151], the half-maximal inhibitory concentration (IC50) is less than 150 pM.

Turning to `Cc1c(S(=O)(=O)c2ccc3[nH]ncc3c2)cc(C(=O)NC2CCc3cccc(F)c32)n1C` (racemic) [B.110], the IC50 came out at 380 pM.

With `Cc1c(S(=O)(=O)c2ccc3[nH]ncc3c2)cc(C(=O)NCc2ncccc2C(F)(F)F)n1C` [B.83], the IC50 amounted to 5300 pM.

Consider `Cc1c(S(=O)(=O)c2ccc3[nH]ncc3c2)cc(C(=O)NCc2c(F)ccc3c2N(C)C(=O)C3(F)F)n1C` [B.74], for which the concentration for half-maximal inhibition (IC50) stood at 500 pM.
